Measured values from patent US20140057941A1, “Methods For Increasing Mean Corpuscular Volume” (priority 2011, published 2014).

Key:
Assay type in all cases: in vivo
[1] = tested on: human subjects with end-stage renal disease; assay: Mean hemoglobin levels in human subjects with end-stage renal disease, 6 week treatment; conditions: TIW; Compound A 1.5 mg/kg and 2.0 mg/kg or epoetin alfa; ESRD
[2] = tested on: human subjects with stage 3 or stage 4 chronic kidney disease; assay: MCV in stage 3 and stage 4 chronic kidney disease patients, 4 weeks; conditions: stage 3/4 CKD
Experimental: In another series of experiments, the effect of a compound of the present invention on MCV was determined in stage 3 and stage 4 chronic kidney disease patients ([…]) as follows. Subjects with stage 3 or stage 4 chronic kidney disease were administered placebo or Compound A (1.5 mg/kg or 2.0 mg/kg) twice or thrice weekly for 4 weeks. MCV values were measured weekly.

[3] = tested on: human subjects with stage 3 or stage 4 chronic kidney disease; assay: MCV in stage 3 and stage 4 chronic kidney disease patients not receiving dialysis, fixed dose, 17 weeks; conditions: fixed dose 50 mg or 100 mg twice weekly for 17 weeks, dose adjustments from week 5; stage 3/4 CKD not on dialysis
Experimental: In another set of experiments, the effect of compound of the present invention on MCV was determined in human subjects with stage 3 and stage 4 chronic kidney disease patients (eGFR<60 ml/min) as follows. Subjects with stage 3 or stage 4 chronic kidney disease not receiving dialysis were administered Compound A at a fixed dose of either 50 mg or 100 mg twice weekly for a period of 17 weeks. Dose adjustments were permitted from week 5 onward to correct and maintain subjects to a target hemoglobin range; however, doses were not allowed to exceed 2.2 mg/kg per dose. MCV values were measured weekly.

[4] = tested on: human patients, particularly having chronic kidney disease; assay: Overall safety and efficacy of tested doses in human patients; conditions: 0.7 to 2.5 mg/kg administered TIW, BIW, or QW
Source text: In particular embodiments, the present invention provides an efficacious therapeutic compound for treating a human subject having reduced mean corpuscular volume (MCV). In one embodiment, the invention comprises the compound [(4-hydroxy-1-methyl-7-phenoxy-isoquinoline-3-carbonyl)-amino]-acetic acid for use in methods of increasing mean corpuscular volume (MCV) in a human subject.

[5] = tested on: human subjects with end-stage renal disease; assay: Mean corpuscular volume (MCV) in human subjects with end-stage renal disease on hemodialysis, 6 weeks TIW, no IV iron; conditions: ESRD; for Mean Change from Baseline MCV at Day 43 (6 weeks) of Treatment: no IV iron; for MCV response following administration for six weeks (Table 1, in words): TIW for 6 weeks, Compound A 1.0, 1.5, 2.0 mg/kg or standard of care epoetin alfa; for Change from baseline of mean MCV over time during the 6 week treatment period (FIG. 1): TIW, Compound A 1.0, 1.5 or 2.0 mg/kg or epoetin alfa
Experimental: The effect of a compound of the present invention on MCV was determined in human subjects with end-stage renal disease as follows. Subjects had been receiving stable maintenance hemodialysis for at least 4 months prior to the initiation of the present study. Additionally, subjects had been maintained on standard of care stable doses of epoetin alfa for the treatment of anemia prior to initiation of the study described herein.
In order to examine differences in the MCV response in subjects treated with a compound of the invention compared to the MCV response in subjects treated with epoetin alpha (the current standard of care), all IV iron supplementation was halted two weeks prior to treatment initiation. Administration of oral iron was allowed.
[…] Baseline MCV levels were determined prior to treatment (mean of two screening period measurements with the Day 1 measurement). MCV levels were measured weekly throughout the 6-week study period.

Compound	Changes in mean hemoglobin levels during the 6 week treatment period (FIG. 2) [1]	Mean MCV over time (FIG. 3) ([2]; 1.5 mg/kg or 2.0 mg/kg twice or thrice weekly for 4 weeks)	Mean change from baseline MCV at Day 22 (FIG. 4) ([2]; 1.5 mg/kg or 2.0 mg/kg twice or thrice weekly, increase)	Mean MCV over time (FIG. 5) [3]	Efficacy of tested doses (increases in MCV) [4]	Safety of tested doses [4]	Mean Change from Baseline MCV at Day 43 (6 weeks) of Treatment ([5]; 1 mg/kg TIW, N = 10)	Mean increase in MCV over baseline after 6 weeks of treatment ([5]; 1.3 mg/kg TIW, N=5) [fL]	Mean Change from Baseline MCV at Day 43 (6 weeks) of Treatment ([5]; 1.5 mg/kg TIW, N = 9)	Mean increase in MCV over baseline after 6 weeks of treatment ([5]; 1.8 mg/kg TIW, N=12) [fL]	Mean Change from Baseline MCV at Day 43 (6 weeks) of Treatment ([5]; 2.0 mg/kg TIW, N = 9)	MCV response following administration for six weeks (Table 1, in words) [5]	Change from baseline of mean MCV over time during the 6 week treatment period (FIG. 1) [5]	Mean Change from Baseline MCV at Day 43 (6 weeks) of Treatment ([5]; standard of care doses TIW, N = 10) [fL]
Cc1nc(C(=O)NCC(=O)O)c(O)c2ccc(Oc3ccccc3)cc12 [Compound A, [(4 hydroxy-1-methyl-7-phenoxy-isoquinoline-3-carbonyl)-amino]-acetic acid]	time-dependent increase in mean hemoglobin levels	mean MCV increased over time	greater than 3 fL	mean MCV initially increased and then stabilized over time	effective	safe	+0.90 fL	2.03	+1.46 fL	2.27	+2.50 fL	MCV increased in a dose-dependent manner	resulted in an increase in mean MCV over time	
Epoetin alfa: erythropoiesis-stimulating agent; current standard of care for anemia, used as control [reference compound]	did not result in an increase hemoglobin levels											showed decreases in MCV	no increase in mean MCV occurred	-0.12
